# Patent publication US11229618B2 (Amarin Pharmaceuticals Ireland Limited, priority 2012, dated 2022)
# What was measured:
# [1] = AAMI 6-week study: essential fatty acid parameters in RBC (gas chromatography); type: in vivo, human; details: RBC; Ethyl-EPA 4 g; baseline
# Protocol: (§1) A single-center, 6-week, double-blind, randomizes, parallel-group, placebo-controlled, dose-ranging pilot study was performed to evaluate the efficacy, tolerability, and safety of >96% ethyl-EPA in subjects with subjective and objective memory impairment according to generally accepted criteria for Age-Associated Memory Impairment (“AAMI”). The primary objective of the study was to determine the effect of >96% ethyl-EPA 1 g, 2 g, and 4 g daily, compared to placebo, on cognitive performance in subjects with AAMI.
# (§2) Ninety-four subjects were randomized into one of six groups: 1 g E-EPA daily (n=23), 2 g E-EPA daily (n=24), 4 g E-EPA daily (n=24), 1 g placebo daily (n=7), 2 g placebo daily (n=8), and 4 g placebo daily (n=8). E-EPA was provided as 500 mg soft gel capsules containing>96% E-EPA and 0.2% dl-α-tocopherol as an antioxidant. Placebo capsules contained 467 mg of liquid paraffin and 0.2% dl-α-tocopherol. Ninety-one subjects completed the study. Two subjects in the 2 g E-EPA group and one subject in the 2 g placebo group discontinued the study.
# (§3) Blood samples (10 mL) were collected at Visit 1 (screening) and at Visits 4, 5 and 6. Analysis was performed by MSR Lipid Analysis, Scottish Crop Research Institute, Dundee, UK. The screening sample acted as baseline for the EFA measurements. Lipid was extracted from plasma, serum and RBC suspensions and converted into fatty acid methyl esters which were analyzed by gas chromatography to give fatty acid profiles as micrograms fatty acid per gram of sample (μgFA/g) and normalized area percent.
# (§4) RBC and plasma EFA data were collected at baseline, Day 14, 28 and 42 and summarized by visit for each treatment group. Change from baseline and percent change from baseline were also summarized. ANCOVA comparison of ethyl-EPA dose groups and ethyl-EPA versus placebo was performed.
# [2] = AAMI 6-week study: essential fatty acid parameters in plasma (gas chromatography); type: in vivo, human; details: for AA Plasma Mean change from Baseline / DHA Plasma Mean change from Baseline / AA Plasma 1 or 2 g versus 4 g LS Mean / DHA Plasma 1 or 2 g versus 4 g LS Mean: AAMI; for AA Plasma Mean change from Baseline / DHA Plasma Mean change from Baseline: mean (SD); for DGLA 1 or 2 g versus 4 g, LS Mean / DPAn-3 1 or 2 g versus 4 g, LS Mean / EPA/AA 1 or 2 g versus 4 g, LS Mean / DGLA Mean change from Baseline, Mean (SD) / DPAn-3 Mean change from Baseline, Mean (SD) / EPA/AA Mean change from Baseline, Mean (SD) / DGLA Baseline Mean (SD) / DPAn-3 Baseline Mean (SD) / EPA/AA Baseline Mean (SD): plasma; for DPAn-3 1 or 2 g versus 4 g, LS Mean / EPA/AA 1 or 2 g versus 4 g, LS Mean: p-value <0.001
# Protocol: as §1, §2, §3, §4
smiles,measurement,setting,value
"CC/C=C\C/C=C\C/C=C\C/C=C\C/C=C\CCCC(=O)OCC [IPE, all-cis eicosa-5,8,11,14,17-pentaenoic acid ethyl ester]",EPA/AA Baseline Mean (SD),[1],0.1 (0.04)
same,AA Plasma Mean change from Baseline,"[2]; 1 g daily, Day 14",−9.7 (22.20) μg/g
same,DHA Plasma Mean change from Baseline,"[2]; 1 g daily, Day 14",−6.4 (13.30) μg/g
same,AA Plasma Mean change from Baseline,"[2]; 1 g daily, Day 28",−11.3 (28.13) μg/g
same,DHA Plasma Mean change from Baseline,"[2]; 1 g daily, Day 28",−6.6 (15.53) μg/g
same,AA Plasma Mean change from Baseline,"[2]; 1 g daily, Day 42",−8.7 (31.35) μg/g
same,DHA Plasma Mean change from Baseline,"[2]; 1 g daily, Day 42",−5.4 (18.17) μg/g
same,AA Plasma 1 or 2 g versus 4 g LS Mean,[2]; 1 g versus 4 g,4.2 µg/g
same,DHA Plasma 1 or 2 g versus 4 g LS Mean,[2]; 1 g versus 4 g,-0.8 µg/g
same,AA Plasma Mean change from Baseline,"[2]; 2 g daily, Day 14",−13.9 (22.13) μg/g
same,DHA Plasma Mean change from Baseline,"[2]; 2 g daily, Day 14",−5.4 (14.29) μg/g
same,AA Plasma Mean change from Baseline,"[2]; 2 g daily, Day 28",21.6 (28.32) μg/g
same,DHA Plasma Mean change from Baseline,"[2]; 2 g daily, Day 28",−8.1 (15.82) μg/g
same,AA Plasma Mean change from Baseline,"[2]; 2 g daily, Day 42",−27.3 (26.76) μg/g
same,DHA Plasma Mean change from Baseline,"[2]; 2 g daily, Day 42",−6.0 (16.69) μg/g
same,AA Plasma 1 or 2 g versus 4 g LS Mean,[2]; 2 g versus 4 g,15.6 µg/g
same,DHA Plasma 1 or 2 g versus 4 g LS Mean,[2]; 2 g versus 4 g,1.5 µg/g
same,AA Plasma Mean change from Baseline,"[2]; 4 g daily, Day 14",−27.2 (28.89) μg/g
same,DHA Plasma Mean change from Baseline,"[2]; 4 g daily, Day 14",−10.3 (13.35) μg/g
same,AA Plasma Mean change from Baseline,"[2]; 4 g daily, Day 28",−43.7 (32.24) μg/g
same,DHA Plasma Mean change from Baseline,"[2]; 4 g daily, Day 28",−13.5 (14.10) μg/g
same,AA Plasma Mean change from Baseline,"[2]; 4 g daily, Day 42",−48.3 (22.20) μg/g
same,DHA Plasma Mean change from Baseline,"[2]; 4 g daily, Day 42",−13.8 (15.31) μg/g
same,"DGLA 1 or 2 g versus 4 g, LS Mean","[2]; Ethyl-EPA 1 g versus 4 g, p-value 0.028",3.7 µg/g
same,"DPAn-3 1 or 2 g versus 4 g, LS Mean",[2]; Ethyl-EPA 1 g versus 4 g,-15.1 µg/g
same,"EPA/AA 1 or 2 g versus 4 g, LS Mean",[2]; Ethyl-EPA 1 g versus 4 g,−0.66
same,"DGLA Mean change from Baseline, Mean (SD)","[2]; Ethyl-EPA 1 g, Day 14",−10.4 (10.90) μg/g
same,"DPAn-3 Mean change from Baseline, Mean (SD)","[2]; Ethyl-EPA 1 g, Day 14",7.5 (5.11) μg/g
same,"EPA/AA Mean change from Baseline, Mean (SD)","[2]; Ethyl-EPA 1 g, Day 14",0.3 (0.4)
same,"DGLA Mean change from Baseline, Mean (SD)","[2]; Ethyl-EPA 1 g, Day 28",−10.6 (10.23) μg/g
same,"DPAn-3 Mean change from Baseline, Mean (SD)","[2]; Ethyl-EPA 1 g, Day 28",8.9 (5.62) μg/g
same,"EPA/AA Mean change from Baseline, Mean (SD)","[2]; Ethyl-EPA 1 g, Day 28",0.3 (0.20)
same,"DGLA Mean change from Baseline, Mean (SD)","[2]; Ethyl-EPA 1 g, Day 42",−9.4 (9.41) μg/g
same,"DPAn-3 Mean change from Baseline, Mean (SD)","[2]; Ethyl-EPA 1 g, Day 42",11.3 (6.61) μg/g
same,"EPA/AA Mean change from Baseline, Mean (SD)","[2]; Ethyl-EPA 1 g, Day 42",0.3 (0.24)
same,DGLA Baseline Mean (SD),[2]; Ethyl-EPA 1 g,51.2 (15.01) μg/g
same,DPAn-3 Baseline Mean (SD),[2]; Ethyl-EPA 1 g,21.1 (6.62) μg/g
same,EPA/AA Baseline Mean (SD),[2]; Ethyl-EPA 1 g,0.2 (0.14)
same,"DGLA 1 or 2 g versus 4 g, LS Mean","[2]; Ethyl-EPA 2 g versus 4 g, p-value 0.143",2.5 µg/g
same,"DPAn-3 1 or 2 g versus 4 g, LS Mean",[2]; Ethyl-EPA 2 g versus 4 g,-9.5 µg/g
same,"EPA/AA 1 or 2 g versus 4 g, LS Mean",[2]; Ethyl-EPA 2 g versus 4 g,−0.41
same,"DGLA Mean change from Baseline, Mean (SD)","[2]; Ethyl-EPA 2 g, Day 14",−14.1 (6.88) μg/g
same,"DPAn-3 Mean change from Baseline, Mean (SD)","[2]; Ethyl-EPA 2 g, Day 14",17.4 (7.49) μg/g
same,"EPA/AA Mean change from Baseline, Mean (SD)","[2]; Ethyl-EPA 2 g, Day 14",0.6 (0.23)
same,"DGLA Mean change from Baseline, Mean (SD)","[2]; Ethyl-EPA 2 g, Day 28",−16.2 (9.88) μg/g
same,"DPAn-3 Mean change from Baseline, Mean (SD)","[2]; Ethyl-EPA 2 g, Day 28",19.4 (8.48) μg/g
same,"EPA/AA Mean change from Baseline, Mean (SD)","[2]; Ethyl-EPA 2 g, Day 28",0.8 (0.35)
same,"DPAn-3 Mean change from Baseline, Mean (SD)","[2]; Ethyl-EPA 2 g, Day 42",19.3 (8.63) μg/g
same,"EPA/AA Mean change from Baseline, Mean (SD)","[2]; Ethyl-EPA 2 g, Day 42",0.7 (0.29)
same,DGLA Baseline Mean (SD),[2]; Ethyl-EPA 2 g,53.5 (14.12) μg/g
same,DPAn-3 Baseline Mean (SD),[2]; Ethyl-EPA 2 g,19.7 (4.50) μg/g
same,EPA/AA Baseline Mean (SD),[2]; Ethyl-EPA 2 g,0.2 (0.12)
same,"DGLA Mean change from Baseline, Mean (SD)","[2]; Ethyl-EPA 4 g, Day 14",−22.9 (9.00) μg/g
same,"DPAn-3 Mean change from Baseline, Mean (SD)","[2]; Ethyl-EPA 4 g, Day 14",24.5 (11.28) μg/g
same,"EPA/AA Mean change from Baseline, Mean (SD)","[2]; Ethyl-EPA 4 g, Day 14",1.1 (0.28)
same,"DGLA Mean change from Baseline, Mean (SD)","[2]; Ethyl-EPA 4 g, Day 28",−24.2 (10.73) μg/g
same,"DPAn-3 Mean change from Baseline, Mean (SD)","[2]; Ethyl-EPA 4 g, Day 28",29.7 (13.23) μg/g
same,"EPA/AA Mean change from Baseline, Mean (SD)","[2]; Ethyl-EPA 4 g, Day 28",1.3 (0.42)
same,"DGLA Mean change from Baseline, Mean (SD)","[2]; Ethyl-EPA 4 g, Day 42",−22.5 (10.87) μg/g
same,"DPAn-3 Mean change from Baseline, Mean (SD)","[2]; Ethyl-EPA 4 g, Day 42",32.0 (16.01) μg/g
same,"EPA/AA Mean change from Baseline, Mean (SD)","[2]; Ethyl-EPA 4 g, Day 42",1.3 (0.45)
same,DGLA Baseline Mean (SD),[2]; Ethyl-EPA 4 g,57.1 (14.73) μg/g
same,DPAn-3 Baseline Mean (SD),[2]; Ethyl-EPA 4 g,21.7 (4.69) μg/g
same,EPA/AA Baseline Mean (SD),[2]; Ethyl-EPA 4 g,0.2 (0.07)
